{"source": "patent US12583848B2", "about": "“Isoxazole-3-carboxamide derivatives and their use for treatment of diseases caused by virus infection” (Collaborations Pharmaceuticals, Inc., priority 2019, dated 2026)", "key": {"[1]": {"molecular_target": "PXR (Homo sapiens, UniProt O75469)", "sequence (O75469 111-434 limits assumed)": "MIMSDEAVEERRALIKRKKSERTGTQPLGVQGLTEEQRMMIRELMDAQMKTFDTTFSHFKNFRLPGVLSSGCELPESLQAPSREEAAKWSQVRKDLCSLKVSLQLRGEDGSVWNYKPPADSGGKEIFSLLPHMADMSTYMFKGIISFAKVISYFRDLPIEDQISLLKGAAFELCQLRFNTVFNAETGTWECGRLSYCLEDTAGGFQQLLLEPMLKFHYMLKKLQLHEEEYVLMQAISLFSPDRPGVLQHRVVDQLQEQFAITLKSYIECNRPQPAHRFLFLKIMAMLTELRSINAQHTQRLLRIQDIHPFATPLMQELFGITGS", "assay": "biochemical"}, "[2]": {"assay": "in vitro"}, "[3]": {"test_system": "polio virus-1 (strain Mahoney)", "assay": "organism not typed", "type": "cell-based", "design": "SI50: unit not given beside the values"}, "[4]": {"assay": "Pharmacokinetic study in mice", "type": "in vivo, white BALB/c male mice", "protocol": "The pharmacokinetics of the compound 8 has been studied in white BALB/c male mice. 22 animals with average body weight of 20 g were selected for the study. Before the experiment the animals were kept on standard vivarium ration with dry pelleted feed. All the test animals had free access to water but were deprived of food for 1 hour before administration of the compound. This regimen was continued for another hour after the administration. […] The animals were euthanized by decapitation for blood sampling. […] Blood was collected in heparinized tubes and centrifuged at 3500 RPM. Plasma was separated from formed elements and immediately frozen at -20° C. in freezer. This storage continued before transferring of plasma for analysis. Serum from 6 untreated animals was used as control and for equipment calibration with compound. Mice brain was immediately frozen at -120° C. Plasma separation: […] Sample preparation: A mixture of 50 μL of plasma and 150 μL of MeCN by intensive shaking (Vortex) for 30 sec. Centrifugation 14000 g for 4 min. […] See also FIG. 1."}, "[5]": {"assay": "Protein binding, mouse", "type": "in vitro ADME", "protocol": "(§1) In vitro ADME studies were performed on compound 8."}, "[6]": {"test_system": "influenza A virus, subtype H1N1 (strain California/07/2009)", "assay": "microbe, parasite or virus in culture", "type": "cell-based", "design": "SI50: unit not given beside the values"}, "[7]": {"test_system": "mouse-adapted EV D68", "assay": "microbe, parasite or virus in culture", "type": "cell-based", "design": "SI50: unit not given beside the values"}, "[8]": {"test_system": "Enterovirus 68 (strain US/KY/14-18953)", "assay": "microbe, parasite or virus in culture", "type": "cell-based", "design": "SI50: unit not given beside the values"}, "[9]": {"test_system": "CVB3 97927-I1207M (pleconaril-resistant variant)", "type": "cell-based, coxsackievirus B3"}, "[10]": {"test_system": "rhinovirus B5 (RV-B5)", "assay": "organism not typed", "type": "cell-based", "settings": "HeLa cells, CPE inhibition, 72 hours; n.a. = not active; read-out: IC50 against Rhinoviruses (RV) RV-B5"}, "[11]": {"test_system": "cytochrome P450", "assay": "Effect on cytochrome P450 enzyme activity", "type": "in vitro ADME"}, "[12]": {"test_system": "Escherichia coli PQ37"}, "[13]": {"assay": "Cell permeability (Caco-2)", "type": "in vitro ADME", "settings": "human, Caco-2", "protocol": "(§2) In vitro ADME studies were performed on compound 8. Cell permeability (Caco-2) results were as follows: Apical (A) to (Basolateral) B 8.8×10^−4 cm/s; […]"}, "[14]": {"test_system": "Caco-2", "assay": "Cell permeability (Caco-2)", "type": "in vitro ADME", "settings": "concluded from Caco-2 efflux", "protocol": "as §2"}, "[15]": {"test_system": "rhinovirus A2 (RV-A2)", "assay": "organism not typed", "type": "cell-based", "settings": "HeLa, 72 h, read-out: IC50 against Rhinoviruses (RV) RV-A2"}, "[16]": {"test_system": "HeLa cells", "settings": "human"}, "[17]": {"test_system": "viruses resistant to pleconaril", "assay": "Inhibition of replication of a broad spectrum of EV in vitro", "type": "cell-based", "settings": "read-out: IC50 values for viruses resistant to pleconaril"}, "[18]": {"test_system": "Enterovirus D68 (EV-D68 MP30 PP)", "type": "in vivo, AG129 mice", "settings": "for weight loss (percentage of initial body weight) following infection: 100 mg/kg/d PO, EV-D68 infected AG129 mice, days 1-5"}, "[19]": {"assay": "Microsomal stability, human liver microsomes", "type": "in vitro ADME", "protocol": "as §1"}, "[20]": {"test_system": "rhinovirus B14 (RV-B14)", "assay": "organism not typed", "type": "cell-based", "settings": "HeLa, 72 h, read-out: IC50 against Rhinoviruses (RV) RV-B14"}, "[21]": {"test_system": "CVB3 97927-I1207T (pleconaril-resistant variant)", "type": "cell-based, coxsackievirus B3"}, "[22]": {"assay": "Microsomal stability, mouse liver microsomes", "type": "in vitro ADME", "protocol": "as §1"}, "[23]": {"settings": "mouse, in vivo, po"}, "[24]": {"test_system": "enterovirus 71 (strain Tainan/4643/98)", "assay": "microbe, parasite or virus in culture", "type": "cell-based", "design": "SI50: unit not given beside the values"}, "[25]": {"test_system": "CVB3 97927-I1207K (pleconaril-resistant variant)", "type": "cell-based, coxsackievirus B3"}, "[26]": {"assay": "Protein binding, human", "type": "in vitro ADME", "protocol": "as §1"}, "[27]": {"assay": "Solubility", "type": "physicochemical", "settings": "pH 7.4, aqueous buffer", "protocol": "as §1"}, "[28]": {"settings": "mice, 100 mg/kg intragastric, plasma"}, "[29]": {"settings": "read-out: Protein binding, bound (converted)"}}, "note": "pEC50, pIC50: −log10 of the molar value. “And” between values parts separate entries of the source, which are not always exact repeats. Identical values can stand only once. Like-named read-outs stand apart in the source and are kept apart here."}
{"smiles": "Cc1cc(-c2noc(C(F)(F)F)n2)ccc1OCCCc1cc(C(=O)N(C)C)no1", "note": "[Compound 8, N,N-dimethyl-5-(3-{2-methyl-4-[5-(trifluoromethyl)-1,2,4-oxadiazol-3-yl]phenoxy}propyl)isoxazole-3-carboxamide]", "values": [{"measurement": "pIC50", "setting": "[1]", "result": "< 4.00"}, {"measurement": "CC50", "setting": "[2]", "result": 52000, "unit": "nM"}, {"measurement": "SI50", "setting": "[3]", "result": 11}, {"measurement": "pEC50", "setting": "[3]; Vero 76", "result": 6.49}, {"measurement": "Concentration in mice plasma", "setting": "[4]; 0.50 hours, individual mice, 100 mg/kg intragastric, 100 mg/kg", "result": "963.29 ng/mL and 2031.52 ng/mL and 1979.28 ng/mL and 2114.06 ng/mL and 1464.12 ng/mL"}, {"measurement": "Concentration in mice plasma", "setting": "[4]; 1 hour, individual mice, 100 mg/kg intragastric, 100 mg/kg", "result": "660.65 ng/mL and 1138.34 ng/mL"}, {"measurement": "Concentration in mice plasma", "setting": "[4]; 2 hours, individual mice, 100 mg/kg intragastric, 100 mg/kg", "result": "667.90 ng/mL and 379.89 ng/mL and 461.99 ng/mL"}, {"measurement": "Concentration in mice plasma", "setting": "[4]; 3 hours, individual mice, 100 mg/kg intragastric, 100 mg/kg", "result": "344.86 ng/mL and 107.10 ng/mL and 403.55 ng/mL"}, {"measurement": "Concentration in mice plasma", "setting": "[4]; 5 hours, individual mice, 100 mg/kg intragastric, 100 mg/kg", "result": "228.15 ng/mL and 74.82 ng/mL and 147.00 ng/mL"}, {"measurement": "Concentration in mice plasma", "setting": "[4]; 7 hours, individual mice, 100 mg/kg intragastric, 100 mg/kg", "result": "90.82 ng/mL and 44.49 ng/mL and 13.49 ng/mL and 45.70 ng/mL"}, {"measurement": "concentration at 0.5 h", "setting": "[4]; male, BALB/c, mouse, plasma, oral, 100 mg/kg, 0.50 hours, 100 mg/kg intragastric", "result": 1710, "unit": "ng/mL"}, {"measurement": "concentration at 1 h", "setting": "[4]; male, BALB/c, mouse, plasma, oral, 100 mg/kg, 1 hour, 100 mg/kg intragastric, read-out: Concentration in mice plasma, Average", "result": 966, "unit": "ng/mL"}, {"measurement": "concentration at 1 h", "setting": "[4]; male, BALB/c, mouse, plasma, oral, 100 mg/kg, 1 hour, individual mice, 100 mg/kg intragastric, read-out: Concentration in mice plasma", "result": 1100, "unit": "ng/mL"}, {"measurement": "concentration at 2 h", "setting": "[4]; male, BALB/c, mouse, plasma, oral, 100 mg/kg, 2 hours, 100 mg/kg intragastric, read-out: Concentration in mice plasma, Average", "result": 536, "unit": "ng/mL"}, {"measurement": "concentration at 2 h", "setting": "[4]; male, BALB/c, mouse, plasma, oral, 100 mg/kg, 2 hours, individual mice, 100 mg/kg intragastric, read-out: Concentration in mice plasma", "result": 634, "unit": "ng/mL"}, {"measurement": "concentration at 3 h", "setting": "[4]; male, BALB/c, mouse, plasma, oral, 100 mg/kg, 3 hours, 100 mg/kg intragastric", "result": 285, "unit": "ng/mL"}, {"measurement": "concentration at 5 h", "setting": "[4]; male, BALB/c, mouse, plasma, oral, 100 mg/kg, 5 hours, 100 mg/kg intragastric", "result": 124, "unit": "ng/mL"}, {"measurement": "concentration at 7 h", "setting": "[4]; male, BALB/c, mouse, plasma, oral, 100 mg/kg, 7 hours, 100 mg/kg intragastric", "result": 49.6, "unit": "ng/mL"}, {"measurement": "AUC", "setting": "[4]; male, BALB/c, mouse, po, mice, 100 mg/kg intragastric, plasma, read-out: AUC0-oo", "result": 3020, "unit": "ng·h/mL"}, {"measurement": "oral bioavailability", "setting": "[4]; mice", "result": "very high oral bioavailability"}, {"measurement": "CL", "setting": "[4]; [28]", "result": 0.66, "unit": "L/h"}, {"measurement": "Cmax.", "setting": "[4]; [28]", "result": "1710.5 ± 489.2", "unit": "ng/mL"}, {"measurement": "MRT", "setting": "[4]; [28]", "result": 129, "unit": "min"}, {"measurement": "T1/2", "setting": "[4]; [28]", "result": 94.8, "unit": "min"}, {"measurement": "Tmax.", "setting": "[4]; [28]", "result": 30, "unit": "min"}, {"measurement": "Vd", "setting": "[4]; [28]", "result": 1.52, "unit": "L"}, {"measurement": "kel", "setting": "[4]; [28]", "result": 0.4373, "unit": "h⁻¹"}, {"measurement": "Protein binding, stability", "setting": "[5]", "result": 88.1, "unit": "%"}, {"measurement": "fraction unbound", "setting": "[5]; [29]", "result": 0.002}, {"measurement": "SI50", "setting": "[6]", "result": 4.3}, {"measurement": "EC90", "setting": "[6]; Influenza A virus, H1N1", "result": 4400, "unit": "nM"}, {"measurement": "SI50", "setting": "[7]", "result": 173}, {"measurement": "pEC50", "setting": "[7]; Enterovirus D, EVD68", "result": 7.64}, {"measurement": "SI50", "setting": "[8]", "result": ">520"}, {"measurement": "pEC50", "setting": "[8]; Enterovirus D", "result": 7.74}, {"measurement": "pIC50", "setting": "[9]", "result": 8.40}, {"measurement": "pIC50", "setting": "[10]", "result": 5.65}, {"measurement": "effect on cytochrome P450 enzyme activity", "setting": "[11]", "result": "without affecting cytochrome P450 enzyme activity"}, {"measurement": "Mutagenicity", "setting": "[12]", "result": "NO"}, {"measurement": "efflux ratio", "setting": "[13]", "result": 3.5}, {"measurement": "P-gp substrate", "setting": "[14]", "result": "likely P-gp substrate"}, {"measurement": "pIC50", "setting": "[15]", "result": 6.39}, {"measurement": "CC50", "setting": "[16]", "result": 13400, "unit": "nM"}, {"measurement": "pIC50", "setting": "[17]", "result": "6.19 to 7.40"}, {"measurement": "weight loss (percentage of initial body weight) following infection", "setting": "[18]", "result": "protected mice from weight loss"}, {"measurement": "weight loss (percentage of initial body weight) following infection", "setting": "[18]; listed as compound 8", "result": "significant protection from weight loss"}, {"measurement": "blood virus", "setting": "[18]; day 5 post-infection", "result": "No virus was detected"}, {"measurement": "half-life", "setting": "[19]", "result": 55.3, "unit": "min"}, {"measurement": "microsomal CLint", "setting": "[19]", "result": 25.1, "unit": "µL/min/mg"}, {"measurement": "pIC50", "setting": "[20]", "result": 7.15}, {"measurement": "pIC50", "setting": "[21]", "result": 8.00}, {"measurement": "microsomal stability (verdict)", "setting": "[22]", "result": "unstable"}, {"measurement": "half-life", "setting": "[22]; read-out: half-life (t1/2)", "result": 19.6, "unit": "min"}, {"measurement": "microsomal CLint", "setting": "[22]; read-out: intrinsic clearance (CLint)", "result": 70.6, "unit": "µL/min/mg"}, {"measurement": "Maximum tolerated dose (MTD)", "setting": "[23]", "result": "at least 100 milligrams per kilogram body weight per day"}, {"measurement": "SI50", "setting": "[24]", "result": 24}, {"measurement": "pEC50", "setting": "[24]; Enterovirus A, Vero 76", "result": 6.03}, {"measurement": "pIC50", "setting": "[25]", "result": 5.44}, {"measurement": "Protein binding, stability", "setting": "[26]", "result": 93.9, "unit": "%"}, {"measurement": "fraction unbound", "setting": "[26]; [29]", "result": 0.003}, {"measurement": "solubility", "setting": "[27]", "result": 0.11, "unit": "µM"}]}
